Literature values in patent US8709515B1, “Nutritional supplement method” (priority 2009, dated 2014).

Tests used:
[1] = tested on: albino rats; conditions: fed in the water to albino rats
[2] = tested on: rats; conditions: one eye with induced increase in intraocular pressure
[3] = tested on: selenite induced cataracts in rats
[4] = tested on: cats

Row | dose above which it may not be safe [4] | SMILES | light-induced photoreceptor damage [1] | retinal neuronal death [2] | progression of cataract [3]
1 | – | O=C(O[C@@H]1Cc2c(O)cc(O)cc2O[C@@H]1c1cc(O)c(O)c(O)c1)c1cc(O)c(O)c(O)c1 [EGCG, Epigallocatechin gallate] | attenuated light-induced photoreceptor damage | attenuated retinal neuronal death | retards the progression of cataract
2 | higher than 30 mg/day | O=C(O)CCCCC1CCSS1 (stereo not drawn) [Alpha lipoic acid] | – | – | –
